In patent US20220183279A1, “STABILIZED THIOKETONE FORMULATIONS” (priority 2019, published 2022):

experiment: Effect of 5% by weight additives on prothioconazole in N,N-dimethyldecanamide, LED 350 nm, 24 hours; format: physicochemical; details: 0.4 g prothioconazole, 1.5 g N,N-dimethyldecanamide, 0.1 g stabiliser (5% by weight), 19 mW/cm^2, 24 hours, Comparison without additive 1539 ppm
Description: 0.4 g of prothioconazole, 1.5 g of N,N-dimethyldecanamide and 0.1 g of the respective stabiliser were combined in a 20 ml vial. The reaction mixtures were irradiated in a photoreactor with stirring (magnetic stirrer) using LED lamps (wavelength 350 nm, 19 mW/cm^2) for 24 hours. Samples were then taken and the respective content of compound III was determined by HPLC chromatography (column: Agilent Zorbax Eclipse Plus C18, 50×4.6 mm, 1.8 μm, mobile phase: acetonitrile/0.1% by weight of aqueous phosphoric acid, gradient at 2 ml/min, temperature: 45° C., external standard).

Compound III (ppm)	Compound
3700	O=C(O)c1cc(O)c(O)c(O)c1 [Gallic acid]
1102	O=C(O)CNC(=O)CCS [N-(Mercaptopropionyl)glycine]
1377	CCCCC(CC)COC(=O)C(C#N)=C(c1ccccc1)c1ccccc1 (stereo not drawn) [Octocrylene]
2059	COc1cc(/C=C/C(=O)O)ccc1O [Ferulic acid]

More lines, now with the values behind:

Compound	Compound III (ppm)
(+/−)-alpha-Tocopherol	96
C=CCc1ccc(O)c(OC)c1 [Eugenol]	580
Cc1cc(O)cc2c1O[C@](C)(CCC[C@H](C)CCC[C@H](C)CCCC(C)C)CC2 [(+)-delta-Tocopherol]	81
Cc1cc(C(C)(C)C)c(O)c(C(C)(C)C)c1 [Butylated hydroxytoluene (BHT), Butylated hydroxytoluene]	576
COc1ccc(O)cc1 [4-Methoxyphenol]	1706
O[C@H](CS)[C@H](O)CS (racemic) [DL-Dithiothreitol]	749
O=C(O)/C=C/c1ccc(O)c(O)c1 [Caffeic acid]	616
O=C(O)C=Cc1ccc(O)cc1 [4-Hydroxycinnamic acid]	2754
